The values that follow come from patent US6303641A, “Cyanoamidines as cell proliferation inhibitors” (Leo Pharmaceuticals Products Ltd., priority 1997, dated 2001).

In assay [1] the test system is human breast cancer (MCF-7). Nature of the assay: Inhibition of tumour cell proliferation in vitro ([3H]thymidine incorporation), MCF-7. Type of assay: cell-based. The settings on record: MCF7, 24 hours, read-out: The median inhibition concentration (IC50, nM) of MCF-7. How it is done:
(§1) The inhibition of tumour cell proliferation was studied using different types of human cancer cell lines. The cell lines under investigation were small cell lung carcinoma (NYH), and breast cancer (MCF-7) using the following general procedure.
(§2) The cells were cultured in vitro for 24 hours in the presence of the compound under investigation. DNA synthesis was measured by incorporation of [3H]thymidine, and the median inhibitory concentrations (IC50) of the compounds were calculated.
A general note: Incorporation of labelled thymidine or its analogues reports DNA synthesis.

The subject of assay [2] is human small cell lung carcinoma (NYH). Nature of the assay: Inhibition of tumour cell proliferation in vitro ([3H]thymidine incorporation), NYH. Type of assay: cell-based. To be noted: 24 hours, read-out: The median inhibition concentration (IC50, nM) of NYH. As to the method:
as §1, §2

The test system of assay [3] is Yoshida sarcoma cells. Nature of the assay: Survival of Yoshida tumour-bearing rats (Increased Life Span). The assay is classed as in vivo, LEW/Mol inbred female rats. The settings on record: once daily from day 3. How it is done:
The prolongation of survival time of tumour-bearing rats was studied in LEW/Mol inbred female rats inoculated with Yoshida sarcoma cells in a number of 2×10^7 cells. Tumour-bearing rats (6 animals per group) were dosed orally once daily from day 3 after the transfer of tumour cells and until death or until the body-weights had increased by 10% as a consequence of tumour proliferation. The mean survival day of treated versus non-treated rats is used to calculate ILS (Increased Life Span). ILS=((mean treated/mean control)-1)*100%.

The structures appear in SMILES notation.

Turning to `N#CNC(=Nc1ccncc1)NCCCCOc1ccccc1` [Prior art B, N-Cyano-N'-(4-phenoxybutyl)-N"-4-pyridylguanidine, reference compound], the figures for the IC50 in assay [1] and in assay [2] were 920 nM and 380 nM, respectively.

With `N#CN=C(NCCCCCCOc1ccc2c(c1)OCO2)c1cccnc1` [Example no. 3, N^2 -Cyano-N^1-(6-(3,4-methylenedioxyphenoxy)hexyl)-3-pyridinecarboxamidine], the values for the IC50 in assay [1] and in assay [2] were 740 nM and 350 nM, respectively.

Take `N#CN=C(NCCCCCCOc1ccc(Cl)cc1)c1cccnc1` [Example no. 1, N^2 -Cyano-N^1-(6(4-chlorophenoxy)hexyl)-3-pyridinecarboxamidine]: the “Increased life span (ILS)” value in assay [3] (10 mg/kg p.o.) turned out to be 60%; in assay [3] (20 mg/kg p.o.), 90%; in assay [3] (30 mg/kg p.o.), 102%. The values for the IC50 in assay [1] and in assay [2] were 350 nM and 39 nM, respectively.

`N#CNC(=Nc1ccncc1)NCCCCCOc1ccccc1` [Prior art C, N-Cyano-N'-(5-phenoxypentyl)-N"-4-pyridylguanidine, reference compound]: the “Increased life span (ILS)” value in assay [3] (50 mg/kg p.o.) is listed as 35%. Besides, the IC50 is 250 nM in assay [1] and 45 nM in assay [2].

As for `CCCCCCCCNC(=NC#N)c1cccnc1` [Prior art A, N^2 -Cyano-N^1-octyl-3-pyridinecarboxamidine, reference compound], in assay [1], the IC50 amounted to 10000 nM.

With `COc1ccccc1OCCCCCCNC(=NC#N)c1cccnc1` [Example no. 2, N^2 -Cyano-N^1-(6-(2-methoxyphenoxy)hexyl)-3-pyridinecarboxamidine], the results for the IC50 in assay [1] and in assay [2] were 540 nM and 340 nM, respectively.
